From US9499511B2, “N-substituted hydroxylamine derivatives with carbon-based leaving groups” (The Johns Hopkins University, priority 2011, dated 2016)
Where a name gives a salt, the structure may show the parent alone.

Tests used:
[1] = N2O headspace analysis (GC) of HNO production, relative to Angeli's salt; assay type: physicochemical; settings: for HNO / N2O production (in words): decomposition at pH 7.4; for % HNO: donor 0.1 mM, 37° C., PBS pH 7.4, yield relative to Angeli's salt by N2O headspace analysis, SEM ±5%, n = 3
Experimental: Nitrous oxide is produced via the dimerization and dehydration of HNO, and is the most common marker for HNO production (Fukuto, J. M. et al., Chem. Res. Toxicol. 2005, 18, 790-801).
Gas chromatography was performed on a Varian CP-3800 instrument equipped with a 1041 manual injector, electron capture detector, and a 25 m 5 Å molecular sieve capillary column. Grade 5.0 nitrogen was used as both the carrier (8 mL/min) and the make-up (22 mL/min) gas. The injector oven and the detector oven were kept at 200° C. and 300° C., respectively. All nitrous oxide analyses were performed with the column oven held constant at 150° C. All gas injections were made using a 100 μL gastight syringe with a sample-lock. Samples were prepared in 15 mL amber headspace vials with volumes pre-measured for sample uniformity (actual vial volume ranges from 15.19-15.20 mL). Vials were charged with 5 mL of PBS buffer containing DTPA, purged with argon, and sealed with a rubber septum. The vials were equilibrated for at least 10 minutes at 37° C. in a dry block heater. A 10 mM stock solution of Angeli's salt (AS) was prepared in 10 mM sodium hydroxide, and HNO donors 1a-4a, 6a (10 mM) were prepared in acetonitrile or methanol and used immediately after preparation. From these stock solutions, 50 μL was introduced into individual thermally-equilibrated headspace vials using a gastight syringe, yielding final substrate concentrations of 0.1 mM. Substrates were then incubated long enough to ensure complete decomposition and equilibration of N2O with the headspace. The headspace (60 μL) was then sampled and injected five successive times using a gastight syringe with a sample lock. This was repeated for n≧3 vials per donor. The nitrous oxide yield was averaged and reported relative to the standard, Angeli's salt. For chemical trapping of HNO, glutathione (100 μL of 10 mM in PBS) was added prior to HNO donor addition to give a final glutathione concentration of 0.2 mM, and headspace sampling for N2O was analogously performed as stated above.

[2] = Decomposition kinetics monitored by UV-Vis spectroscopy; assay type: physicochemical
Experimental: NMR spectra were obtained on a Bruker Avance 400 MHz FT-NMR spectrometer. […] High-resolution mass spectra were obtained on a VG Analytical VG70SE magnetic sector mass spectrometer operating in fast atom bombardment (FAB) mode. […] Phosphate-buffered saline (PBS) solutions (0.1 M) were prepared with 140 mM NaCl and 3 mM KCl, with 100 μM diethylenetriaminepentaacetic acid (DTPA), adjusted to pH 7.4.

Sprague-Dawley rats = experiment: Acute cardiovascular effects, pressure-volume (PV) loop analysis in anesthetized rats; assay type: in vivo, rat; settings: IV infusion 100 μg/kg/min, 5 rats
Experimental: The acute cardiovascular effects of compounds 4a and 6a, when administered intravenously to Sprague-Dawley rats at an infusion rate of 100 μg/kg/min, were examined by means of pressure-volume (PV) curve (loops) analysis. PV families/relationships were generated via pre-load variation and hemodynamic indices were compared to baseline values. Each test article was administered to 5 rats.
Rats were intraperitoneally (IP) anesthetized to effect with pentobarbital (˜50 mg/kg), shaved and positioned in dorsal recumbence, endotracheally intubated and ventilated […], ˜2.5 mL tidal volume with 95% O2/5% CO2) with an adjustable small animal ventilator (Harvard Apparatus). Anesthesia was maintained with a continuous pentobarbital infusion (to effect, ˜3 to 5 mg/kg/h, IV) until completion of the experiment via an indwelling catheter placed in a femoral vein. Subsequently, transthoracic needle electrodes forming a single-lead ECG were placed. For LV mechano-energetic evaluation, the right carotid artery was isolated, dissected free from the surrounding tissue, and cannulated with a 2F high-fidelity conductance/micromanometer catheter (Millar Instruments). This catheter was advanced retrograde across the aortic valve and into the LV chamber in order to simultaneously determine left-ventricular pressure and volume (via conductivity). […] Meanwhile, in order to record arterial pressures, a 2F high-fidelity micromanometer catheter (Millar Instruments) was inserted into a femoral artery and advanced towards the abdominal aorta. Finally, an in-dwelling catheter was placed into the jugular vein for administration of test article.
Following collection of baseline hemodynamic data, infusion of test article was initiated at an infusion rate of 100 μg/kg/min; at 10 μL/min. Pressure-volume analyses were performed again approximately 30 min and 45 min after the initiation of the dose.
The resulting left-ventricular pressure and volume data was analyzed offline (IOX/ECG Auto; EMKA Technologies) in order to generate relationships representing the contractile and energetic state of the myocardium. Systolic (SAP), diastolic (DAP), and mean (MAP) arterial pressures were collected. Left-ventricular mechanical and/or geometrical indices were obtained from the pressure (ESP, EDP, dP/dt max/min, time-constant of relaxation—tau [based on mono-exponential decay with non-zero asymptote]) and volume (ESV, EDV, SV) signal. In addition, the following measurements were derived from left-ventricular pressure-volume data (PV loops) generated during brief periods of preload reduction: • Pressure volume area (PVA) and stroke work (SW). • End-systolic (ESPVR) and end-diastolic (EDPVR) pressure volume relationships. • End systolic pressure and stroke volume relationship (Arterial Elastance, Ea).
Data are presented as means with standard errors (mean±SEM) in Table 6.

[3] = Decomposition monitored by 1H NMR spectroscopy (carbanion yield, kinetics, half-life); assay type: physicochemical; settings: 10% D2O
Excerpt: […] In each case, the bottom spectrum was collected at the start of the experiment, and the top spectrum after complete decomposition.
NMR spectra were obtained on a Bruker Avance 400 MHz FT-NMR spectrometer. […] High-resolution mass spectra were obtained on a VG Analytical VG70SE magnetic sector mass spectrometer operating in fast atom bombardment (FAB) mode. […]

[4] = Decomposition kinetics monitored by UV-Vis spectroscopy; assay type: physicochemical; settings: PBS, pH 7.4, Condition A: pH 7.4, 37° C., 0.1M PBS, 100 μL DTPA, air (UV/Vis)
[5] = comparison value; cited from earlier work
[6] = PBS, pH 7.4, Condition B: pH 7.4, 37° C., 0.25M PBS, no chelator, air (1H NMR)
[7] = PBS, pH 7.4, Condition G: pH 7.4, 37° C., 0.25M PBS, 100 μL DTPA, air (1H NMR)

Compound: CC1(C)OC(=O)C(C)(NO)C(=O)O1 [Compound 1a, 5-(N-hydroxylamine)-5-methyl-Meldrum's acid hydrochloride monohydrate]
- HNO / N2O production (in words) [1]: only trace amounts of N2O
- % HNO [1]: 2%

Compound: CO/N=C(\C)C1(NO)C(=O)OC(C)(C)OC1=O [Compound 2a, 5-(N-hydroxylamine)-5-(acetyl-O-methoxyoxime)-Meldrum's acid]
- HNO / N2O production (in words) [1]: enhanced HNO yield
- % HNO [1]: 25%
- half-life ([2]; PBS, pH 7.4, footnote c not given, pH 7.4, 37° C., read-out: t1/2): 0.015 h

Compound: CCC1(NO)C(=O)N(C)C(=O)N(C)C1=O [Compound 3a, 5-(N-hydroxylamine)-5-ethyl-N,N-dimethylbarbituric acid hydrochloride]
- HNO / N2O production (in words) [1]: produced little HNO
- % HNO [1]: 2%

Compound: CO/N=C(\C)C1(NO)C(=O)N(C)C(=O)N(C)C1=O [Compound 4a, 5-(N-hydroxylamine)-5-(acetyl-O-methoxyoxime)-N,N-dimethylbarbituric acid]
- HNO / N2O production (in words) [1]: high yield of N2O
- % HNO [1]: 110%
- half-life ([2]; buffer, pH 4, pH 4.0 and room temperature, read-out: half-life (converted)): ~24 h
- half-life ([2]; buffer, pH 7.4, footnote c not given, pH 7.4, 37° C., read-out: t1/2): 0.0117 h
- half-life ([2]; buffer, pH 7.4, pH 7.4 and 37° C., read-out: half-life (converted)): ~0.0167 h
- pH near which the decomposition rate sharply increases ([2]; decomposition rate as a function of pH at 25° C., UV-Vis): ~8
- Mean Blood Pressure (Sprague-Dawley rats; baseline 124 (4a) / 138 (6a)): 71 mmHg
- Stroke Volume (Sprague-Dawley rats; mean, baseline 1 (4a) / 2.2 (6a)): 1.2 relative volume units
- End Diastolic Pressure Volume Relationship (Sprague-Dawley rats; mean, baseline 1.7 (4a) / 1.8 (6a)): 1.6
- End Diastolic Pressure (Sprague-Dawley rats; mean, baseline 4.7 (4a) / 4.4 (6a)): 3.4 mmHg
- Tau (Sprague-Dawley rats; mean, baseline 8.5 (4a) / 8.7 (6a)): 7.8 ms
- Arterial Elastance (Sprague-Dawley rats; mean, baseline 9.2 (4a) / 7.4 (6a)): 4.8
- End Diastolic Volume (Sprague-Dawley rats; mean, baseline 14.6 (4a) / 19.2 (6a)): 15 relative volume units
- End Systolic Pressure Volume Relationship (Sprague-Dawley rats; mean, baseline 28.1 (4a) / 23.7 (6a)): 34.1
- Pre-Load Recruitable Stroke Work (Sprague-Dawley rats; mean, baseline 37.6 (4a) / 42.8 (6a)): 54.3
- Diastolic Blood Pressure (Sprague-Dawley rats; mean, baseline 109 (4a) / 121 (6a)): 62 mmHg
- Stroke Work (Sprague-Dawley rats; mean, baseline 112 (4a) / 227 (6a)): 74 relative volume units × mmHg
- End Systolic Pressure (Sprague-Dawley rats; mean, baseline 134 (4a) / 141 (6a)): 71 mmHg
- Systolic Blood Pressure (Sprague-Dawley rats; mean, baseline 147 (4a) / 160 (6a)): 85 mmHg
- Pressure Volume Area (Sprague-Dawley rats; mean, baseline 343 (4a) / 590 (6a)): 151
- Heart Rate (Sprague-Dawley rats; mean, baseline 365 (4a) / 340 (6a)): 350 bp, m
- Left Ventricular +dP/dt (Sprague-Dawley rats; mean, baseline 6392 (4a) / 7689 (6a)): 3518 mmHg/s
- Left Ventricular −dP/dt (Sprague-Dawley rats; mean, baseline −7585 (4a) / −8257 (6a)): −4096 mmHg/s
- decomposition rate constant k (single exponential fit) ([3]; 4a to 4b, PBS, pH 7.4, room temperature): 0.0024 s⁻¹

Compound: CO/N=C(\C)C1(NO)C(=O)N(C)N=C1C (centres unmarked) [Compound 7a, 4-(N-hydroxylamine)-4-(acetyl-O-methoxyoxime)-N-methyl-5-methyl-pyrazolone]
- half-life [4]: 0.383 h

Compound: CC1=NN(c2ccccc2)C(=O)C1(C)NO (centres unmarked) [Compound 8a, 4-(N-hydroxylamine)-4-methyl-N-phenyl-5-methyl-pyrazolone]
- half-life [3, 6]: 16 h
- half-life ([3]; PBS, pH 7.4, Condition C: pH 7.4, 37° C., 0.25M PBS, 100 μL DTPA, BME (20 equiv.), argon (1H NMR)): 28 h
- half-life ([3]; PBS, pH 7.4, Condition D: pH 7.4, 37° C., 0.25M PBS, 100 μL DTPA, GSH (2 equiv.), argon (1H NMR)): 50 h
- half-life ([3]; PBS, pH 7.4, Condition E: pH 7.4, 37° C., 0.25M PBS, 100 μL DTPA, 12b (1 equiv.), air (1H NMR)): 100 h

Compound: CC1=NN(C)C(=O)C1(C)NO (centres unmarked) [Compound 9a, 4-(N-hydroxylamine)-4-methyl-N-methyl-5-methyl-pyrazolone]
- % remains after 48 h ([3]; Condition F: pH 7.4, 37° C., 0.25M PBS, no chelator, nitrogen (1H NMR)): 84% remains after 48
- half-life [3, 6]: 48 h

Compound: CC1=NN(c2ccc(Cl)cc2)C(=O)C1(C)NO (centres unmarked) [Compound 10a, 4-(N-hydroxylamine)-4-methyl-N-(4-chlorophenyl)-5-methyl-pyrazolone]
- half-life [3, 7]: 84 h

Compound: CC1=NN(c2ccccc2Cl)C(=O)C1(C)NO (centres unmarked) [Compound 11a, 4-(N-hydroxylamine)-4-methyl-N-(2-chlorophenyl)-5-methyl-pyrazolone]
- half-life [3, 7]: 120 h

Compound: CC1=NNC(=O)C1(C)NO (centres unmarked) [Compound 12a, 4-(N-hydroxylamine)-4-methyl-5-methyl-pyrazolone]
- % remains after 7 d ([3]; Condition G: pH 7.4, 37° C., 0.25M PBS, 100 μL DTPA, air (1H NMR)): 70% remains after 7 d

Compound: CC1(C)OC(=O)CC(=O)O1 [Meldrum's acid]
- pKa [5]: 4.8

Compound: CN1C(=O)CC(=O)N(C)C1=O [N,N-dimethyl barbituric acid]
- pKa [5]: 4.7

Compound: CC1=NN(c2ccccc2)C(=O)C1 [edaravone]
- pKa [5]: 7
